Experiments:
[1] = tested on: human cervical carcinoma HeLa; experiment: MTT cytotoxicity assay, 48 h; type: cell-based
Outline: (§1)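 Cells were seeded at 10^4 per well, grown 24 h, then exposed to derivatives (0.5–50 µM, DMSO vehicle) for 48 h at 37 °C, 5% CO2 in DMEM/10% FBS. Viability was read by MTT (0.5 mg/mL final, 2 h; A570/620). IC50 was the concentration reducing A570 to 50% of control, from dose–response curves.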

[2] = tested on: human cervical carcinoma KB-3-1; experiment: MTT cytotoxicity assay, 48 h; type: cell-based
Outline: as §1

[3] = tested on: human duodenal carcinoma HuTu-80; experiment: MTT cytotoxicity assay, 48 h; type: cell-based
Outline: as §1

[4] = tested on: human lung adenocarcinoma A549; experiment: MTT cytotoxicity assay, 48 h; type: cell-based; conditions: Homo sapiens, A549; MTT, 48 h
Outline: as §1

murine melanoma B16 = experiment: MTT cytotoxicity assay, 48 h; type: cell-based
Outline: as §1

[5] = tested on: nontransformed human fibroblasts hFF3; experiment: MTT cytotoxicity assay, 48 h; type: cell-based; conditions: Homo sapiens, HFF-3, read-out: IC50, µM Fibroblast hFF3
Outline: as §1

HeLa cells [6] = experiment: Apoptosis assay by flow cytometry (annexin V-FITC/PI); type: cell-based, human; conditions: 48 h
Protocol: HeLa cells were seeded in 24-well plates at density of 5 × 10^4 cells per well and incubated under standard conditions for 24 h. Next, the cells were treated by compound 5f at 7 or 10 µM for a subsequent 48 h, followed by dissociation of cell monolayers into single cells by TrypLE Express (Gibco, Taastrup, Denmark) - and washing with cold PBS. Thereafter, cells were resuspended in binding buffer at concentration of 10^6 cells/mL. After double staining with Annexin V-FITC and propidium iodide (PI) from an Annexin V-FITC Apoptosis Detection Kit (Millipore, Bedford, MA, USA), cells were analyzed using a NovoCyte Flow Cytometer (ACEA Biosciences Inc., San Diego, CA, USA). For each sample, 10,000 events were acquired.

[7] = tested on: caspase-3/7 in HeLa cells; experiment: Executioner caspases-3/7 activity assay (Caspase-Glo 3/7); type: cell-based, human; conditions: 48 h
Protocol: The activity of caspase-3/7 in HeLa cells was evaluated using a Caspase-Glo® 3/7 assay kit (Promega, Madison, WI, USA) according to manufacturer’s instructions. […] After incubation, 100 µL of Caspase-Glo® 3/7 Reagent was added to each wells, the plate was carefully shaken on a plate mixer, then incubated for 30 min in darkness at room temperature. The luminescence was measured using a luminometer (CLARIOstar plate reader (BMG Labtech, Ortenberg, Germany)).

HeLa cells [8] = experiment: Cell motility by xCelligence (CIM-plate); type: cell-based, human; conditions: 0.5 µM, 48 h, nontoxic concentration
Protocol: HeLa cells were seeded in tetraplicate at 2 × 10^4 cells per well in the upper chamber of CIM-plates, in the presence or absence of 5f at 0.5 µM. To stimulate cell migration, the lower chamber of the CIM-plate contained 10% FBS as chemoattractant. The cell index (electrical impedance) was monitored by the Real-Time Cell Analyzer Dual Plates (RTCA DP) xCelligence System (ACEA Biosciences, San Diego, CA, USA) every 1 h for 48 h.

CC1(C)C2CC[C@]3(C)C(C(=O)C=C4[C@@H]5C[C@@](C)(c6nc(-c7ccccn7)no6)CC[C@]5(C)CC[C@]43C)[C@@]2(C)CC[C@@H]1O (stereo partly drawn) [Compound 5f, 30-nor-3β-hydroxy-11-oxo-20-(3′-(pyridin-2′′-yl)-1′,2′,4′-oxadiazol-5′-yl)-18βH-olean-12-en]
IC50 ([1]; Homo sapiens, HeLa, MTT, 48 h, read-out: IC50, µM Cervix HeLa): 3.6 ± 0.5 µM
Selectivity index: HeLa ([1]; IC50 in hFF3 / IC50 in HeLa): > 13.9
IC50 ([2]; Homo sapiens, KB 3-1, MTT, 48 h, read-out: IC50, µM Cervix KB-3-1): 4.7 ± 0.1 µM
Selectivity index: KB-3-1 ([2]; IC50 in hFF3 / IC50 in KB-3-1): > 10.6
IC50 ([3]; Homo sapiens, HuTu80, MTT, 48 h, read-out: IC50, µM Duodenum HuTu-80): 3.8 ± 0.3 µM
Selectivity index: HuTu-80 ([3]; IC50 in hFF3 / IC50 in HuTu-80): > 13.2
IC50 [4]: > 50 µM
Selectivity index: B16 (murine melanoma B16; IC50 in hFF3 / IC50 in B16): > 5.3
IC50 (murine melanoma B16; Mus musculus, MTT, 48 h): 9.4 ± 0.4 µM
IC50 [5]: > 50 µM
early apoptotic cells (quadrant Q4-4) (HeLa cells [6]; 7 µM): 12.5%
late apoptotic cells (quadrant Q4-2) (HeLa cells [6]; 7 µM): 60.7%
early apoptotic cells (quadrant Q4-4) (HeLa cells [6]; 10 µM): 8.1%
late apoptotic cells (quadrant Q4-2) (HeLa cells [6]; 10 µM): 66.5%
necrotic cells (quadrant Q4-1) (HeLa cells [6]; 10 µM): 14.2%
increase of caspase-3/7 activity in comparison with control ([7]; 5 µM): 1.3 times
increase of caspase-3/7 activity in comparison with control ([7]; 7 µM): 1.9 times
effect on motility of HeLa cells (HeLa cells [8]): statistically significant suppressed the motility of HeLa cells

Reference: article PMC7279002, “Novel 3′-Substituted-1′,2′,4′-Oxadiazole Derivatives of 18βH-Glycyrrhetinic Acid and Their O-Acylated Amidoximes: Synthesis and Evaluation of Antitumor and Anti-Inflammatory Potential In Vitro and In Vivo” (International Journal of Molecular Sciences, 2020)
